Test results from patent US8685977B2, “Chemical compounds” (Pfizer Limited, priority 2010, dated 2014).

Target: T1, Nav1.7 (or SCN9A) channel (Homo sapiens, UniProt Q15858)
T1 construct: expressed in transfected cells
Experiment: Nav1.7 Ionworks Quattro automated electrophysiology assay (HEK cells expressing hSCN9A)
Type: cell-based
Settings: Ionworks assay (IW), read-out: Nav1.7 EIC50 (IW)
Description: The ability of the compounds of formula (I) to block the Nav1.7 (or SCN9A) channel was measured using the assays described below. Human Embryonic Kidney (HEK) cells were transfected with an hSCN9A construct using lipofectamine reagent (Invitrogen), using standard techniques. Cells stably expressing the hSCN9A constructs were identified by their resistance to G-418 (400 μg/ml). Clones were screened for expression using the whole-cell voltage-clamp technique. HEK cells stably transfected with hSCN9A were maintained in DMEM medium supplemented with 10% heat-inactivated fetal bovine serum and 400 μg/ml G-418 in an incubator at 37° C. with a humidified atmosphere of 10% CO2. For HTS, cells were harvested from flasks by trypsinization and replated in an appropriate multi-well plate (typically 96 or 384 wells/plate) such that confluence would be achieved within 24 hours of plating. For electrophysiological studies, cells were removed from the culture flask by brief trypsinization and re-plated at low density onto glass cover slips. Cells were typically used for electrophysiological experiments within 24 to 72 hours after plating. Electrophysiological assays were also conducted using the lonworks Quattro automated electrophysiological platform (Molecular Devices Corp). Intracellular and extracellular solutions were as described above with the following changes, 100 μg/ml amphotericin was added to the intracellular solution to perforate the membrane and allow electrical access to the cells. hSCN9A cells were grown and harvested as for PatchXpress and cells were resuspended in extracellular solution at a concentration of 3−4×10^6 cells/ml. The onboard liquid handling facility of the lonworks Quattro was used for dispensing cells and application of test compounds. A voltage protocol was then applied that comprised of a voltage step to fully inactivate the sodium channels, followed by a brief hyperpolarized recovery period to allow partial recovery from inactivation for unblocked sodium channels, followed by a test depolarized voltage step to assess magnitude of inhibition by test compound. Compound effect was determined based on current amplitude difference between the pre-compound addition and post-compound addition scans. Compounds of the Examples were tested in the assays described above and found to have the Nav1.7 EIC50 (μM) values specified in the table below. All data are derived from the PatchXpress assay unless explicitly stated otherwise.

T1 sequence (Q15858 whole entry): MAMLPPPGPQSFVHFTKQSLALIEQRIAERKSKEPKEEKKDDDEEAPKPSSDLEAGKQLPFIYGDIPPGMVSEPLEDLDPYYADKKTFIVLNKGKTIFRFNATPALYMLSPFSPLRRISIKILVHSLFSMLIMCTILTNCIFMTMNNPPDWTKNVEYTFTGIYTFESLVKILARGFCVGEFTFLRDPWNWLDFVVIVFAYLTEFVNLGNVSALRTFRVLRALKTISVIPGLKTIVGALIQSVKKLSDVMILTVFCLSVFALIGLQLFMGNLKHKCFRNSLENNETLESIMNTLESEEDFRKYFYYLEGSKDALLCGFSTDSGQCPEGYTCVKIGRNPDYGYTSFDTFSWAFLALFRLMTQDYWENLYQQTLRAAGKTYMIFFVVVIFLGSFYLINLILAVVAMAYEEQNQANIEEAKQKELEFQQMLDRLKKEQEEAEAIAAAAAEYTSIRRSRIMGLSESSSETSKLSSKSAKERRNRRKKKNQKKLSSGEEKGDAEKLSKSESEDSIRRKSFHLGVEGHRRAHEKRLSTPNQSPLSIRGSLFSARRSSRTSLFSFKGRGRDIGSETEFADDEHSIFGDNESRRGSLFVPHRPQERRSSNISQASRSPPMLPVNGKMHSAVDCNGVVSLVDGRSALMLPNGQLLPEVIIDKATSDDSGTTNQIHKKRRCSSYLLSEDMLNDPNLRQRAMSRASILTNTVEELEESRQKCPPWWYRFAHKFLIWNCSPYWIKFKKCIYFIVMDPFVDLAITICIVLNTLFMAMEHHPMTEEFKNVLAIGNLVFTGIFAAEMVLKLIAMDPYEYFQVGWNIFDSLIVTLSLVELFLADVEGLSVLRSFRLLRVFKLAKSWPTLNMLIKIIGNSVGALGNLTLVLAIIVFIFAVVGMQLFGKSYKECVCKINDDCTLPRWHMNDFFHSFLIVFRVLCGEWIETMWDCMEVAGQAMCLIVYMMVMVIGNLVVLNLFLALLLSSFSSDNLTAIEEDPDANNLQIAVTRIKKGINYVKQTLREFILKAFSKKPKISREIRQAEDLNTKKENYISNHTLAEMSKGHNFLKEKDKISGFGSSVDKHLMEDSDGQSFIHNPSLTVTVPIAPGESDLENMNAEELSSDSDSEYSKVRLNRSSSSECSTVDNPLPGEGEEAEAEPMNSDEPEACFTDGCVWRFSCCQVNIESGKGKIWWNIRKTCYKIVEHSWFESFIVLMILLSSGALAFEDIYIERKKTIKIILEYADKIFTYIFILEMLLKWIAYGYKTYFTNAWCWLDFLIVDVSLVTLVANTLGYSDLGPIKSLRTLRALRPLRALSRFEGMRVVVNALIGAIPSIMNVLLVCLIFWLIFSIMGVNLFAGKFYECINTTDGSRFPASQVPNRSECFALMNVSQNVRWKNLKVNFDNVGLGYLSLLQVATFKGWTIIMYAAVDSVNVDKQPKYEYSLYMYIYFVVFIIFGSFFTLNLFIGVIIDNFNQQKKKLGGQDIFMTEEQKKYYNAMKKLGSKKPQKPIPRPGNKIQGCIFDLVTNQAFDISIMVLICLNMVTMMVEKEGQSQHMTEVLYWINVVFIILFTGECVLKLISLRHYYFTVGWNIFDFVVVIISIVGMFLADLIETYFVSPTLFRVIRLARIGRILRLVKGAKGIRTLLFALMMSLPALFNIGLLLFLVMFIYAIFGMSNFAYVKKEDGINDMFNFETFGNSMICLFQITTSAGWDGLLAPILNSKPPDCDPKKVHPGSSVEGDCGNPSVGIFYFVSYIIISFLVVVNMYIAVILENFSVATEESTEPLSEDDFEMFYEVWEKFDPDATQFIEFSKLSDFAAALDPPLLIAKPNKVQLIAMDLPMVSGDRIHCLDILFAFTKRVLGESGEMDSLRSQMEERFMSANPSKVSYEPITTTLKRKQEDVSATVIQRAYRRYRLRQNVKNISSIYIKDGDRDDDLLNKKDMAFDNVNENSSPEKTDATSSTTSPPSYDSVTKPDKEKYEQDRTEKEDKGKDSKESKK

| SMILES | IC50 [µM] |
| --- | --- |
| CS(=O)(=O)NC(=O)c1ccc(Oc2ccccc2C(F)(F)F)c(C#N)c1 [Example 271, 3-cyano-N-(methylsulfonyl)-4-[2-(trifluoromethyl)phenoxy]benzamide] | > 323 |
| CS(=O)(=O)NC(=O)c1ccc(Oc2cccc(C(F)(F)F)c2Cl)cc1 [Example 210, 4-[2-chloro-3-(trifluoromethyl)phenoxy]-N-(methylsulfonyl)benzamide] | 288 |
| COc1c(C(=O)NS(C)(=O)=O)ccc(Oc2ccc(C)cc2)c1F [Example 226, 3-fluoro-2-methoxy-4-(4-methylphenoxy)-N-(methylsulfonyl)benzamide] | 300 |

The next molecules have a lower IC50 than those just listed; values first:

| IC50 [µM] | SMILES |
| --- | --- |
| 44.8 | CCOc1ccccc1Oc1ccc(C(=O)NS(C)(=O)=O)cc1C#N [Example 273, 3-cyano-4-(2-ethoxyphenoxy)-N-(methylsulfonyl)benzamide] |
| 18.7 | CS(=O)(=O)NC(=O)c1ccc(Oc2ccc(F)c(C(F)(F)F)c2)cc1 [Example 208, 4-[4-fluoro-3-(trifluoromethyl)phenoxy]-N-(methylsulfonyl)benzamide] |
| 13.7 | CS(=O)(=O)NC(=O)c1ccc(Oc2cc(C(F)(F)F)ccc2Cl)cc1 [Example 207, 4-[2-chloro-5-(trifluoromethyl)phenoxy]-N-(methylsulfonyl)benzamide] |
| 3.91 | CS(=O)(=O)NC(=O)c1cc(Cl)c(Oc2ccccc2Cl)cc1F [Example 300, 5-chloro-4-(2-chlorophenoxy)-2-fluoro-N-(methylsulfonyl)benzamide] |
